These results are taken from ChEMBL document CHEMBL1201862, “PubChem BioAssay data set” (2004).

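Each compound was tested at five concentrations against cells in 96-well plates for 48 hours. Abbreviation: GI50, concentration required for 50% inhibition of growth.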 Calls of active or inactive are those of the source. No stated cut-off is given here; in the data, active = GI50 up to about 1.1 µM and inactive = higher.

Test systems include HOP-18; DMS-114; KM-20L2; DMS-273; SNB-78; LXFL 529; M19-MEL; RXF 631; XF498.
Common to all, as to assay: growth of human tumour cells (NCI), 48 h

Take `CN(C)CCNC(=O)c1cccc2ccc(-c3ccc(-c4ccccc4)cc3)nc12`: the GI50 in the experiment with HOP-18 is 12.9 µM (inactive); in the experiment on DMS-114, 1.7 µM (inactive); with KM-20L2, 1.98 µM (inactive); in the experiment with DMS-273, 1.69 µM (inactive); in the experiment on SNB-78, 14 µM (inactive); in the experiment on LXFL 529, 1.83 µM (inactive). Further, the GI50 in the experiment with M19-MEL is 1.81 µM (inactive); with RXF 631, 1.76 µM (inactive).
`O=C1C=CC=CC2CC=C[C@@H](O)C12` (stereo not given in full): the GI50 with DMS-114 was 18.1 µM (inactive); in the experiment on KM-20L2 it was 21 µM (inactive); with DMS-273 it was 22.6 µM (inactive); in the experiment with SNB-78, 32.4 µM (inactive); in the experiment with LXFL 529, 17.5 µM (inactive); in the experiment with M19-MEL it was 16.8 µM (inactive).
With `CCc1nc2cc(/N=N/c3c(O)ccc4ccccc34)ccc2[nH]1`, the GI50 with DMS-114 was 17.3 µM (inactive); in the experiment on KM-20L2, 19.6 µM (inactive); in the experiment with DMS-273, 17.1 µM (inactive); with SNB-78, 15.5 µM (inactive); with LXFL 529 it was 11.5 µM (inactive); with M19-MEL it was 18.9 µM (inactive).
Consider `COc1cccc2c1[C@H]1OC(=O)NC1CCCCC2` (stereo not given in full), for which the GI50 in the experiment with HOP-18, in the experiment with DMS-114, in the experiment with KM-20L2, in the experiment with DMS-273, in the experiment with SNB-78 and in the experiment on LXFL 529 was > 100 µM (inactive) in each case. The GI50 in the experiment on M19-MEL was > 100 µM (inactive).
Consider `O=C1CCN2C(=O)CCN12`, for which the GI50 with DMS-114, in the experiment on XF498, in the experiment with SNB-78, with LXFL 529 and with M19-MEL was > 100 µM (inactive) in each case.
Turning to `CCN(CC)c1ccc(/N=C2/C=CC(=O)c3ncccc32)c(C)c1`, the GI50 was 10.5 µM (inactive) with HOP-18; 3.9 µM (inactive) with DMS-114; 13.5 µM (inactive) in the experiment on KM-20L2; 2.02 µM (inactive) in the experiment on XF498; 8.3 µM (inactive) in the experiment with DMS-273; 9.55 µM (inactive) with SNB-78. In addition, the GI50 is 2.48 µM (inactive) with LXFL 529, 10.4 µM (inactive) in the experiment on M19-MEL and 14.2 µM (inactive) with RXF 631.
Turning to `C/C(CCN(C)C)=N/O`, the GI50 is 0.4 µM (active) in the experiment with HOP-18; 0.8 µM (active) with DMS-114; 8.47 µM (inactive) with KM-20L2; 17.8 µM (inactive) in the experiment with XF498; 15.8 µM (inactive) with SNB-78; 0.346 µM (active) with LXFL 529. Also, the GI50 in the experiment with M19-MEL is 0.798 µM (active).
As for `COC(=O)NC(=O)c1cn(CCCOC(=O)CCCCCCCCC(=O)OCCCn2cc(C(=O)NC(=O)OC)c(=O)[nH]c2=O)c(=O)[nH]c1=O`, the GI50 is > 100 µM (inactive) with HOP-18; > 100 µM (inactive) with DMS-114; > 100 µM (inactive) in the experiment with KM-20L2; 19.3 µM (inactive) in the experiment with XF498; > 100 µM (inactive) in the experiment with DMS-273; 78 µM (inactive) with SNB-78. The figures for the GI50 with LXFL 529, with M19-MEL and in the experiment on RXF 631 were > 100 µM (inactive), > 100 µM (inactive) and 50.9 µM (inactive), respectively.
As for `CN(C(=O)C12C3C4C1C1C2C3C41C(O)C(C)(C)C)C(C)(C)C` (stereo not given), the GI50 in the experiment with DMS-114, in the experiment on KM-20L2, with XF498, with DMS-273, in the experiment on SNB-78 and in the experiment on LXFL 529 was > 100 µM (inactive) throughout. Also, the GI50 in the experiment on M19-MEL and with RXF 631 was > 100 µM (inactive) throughout.
Take `CC(=O)NNc1nc(C)c(C(=O)/C=C/c2ccc(Cl)cc2)s1`: the GI50 in the experiment on HOP-18, in the experiment with DMS-114, in the experiment with KM-20L2, in the experiment with DMS-273, with SNB-78 and in the experiment on M19-MEL was > 100 µM (inactive) each time.
Turning to `O=c1c2cc(Br)cc(Br)c2[nH]c(=S)n1-c1ccccc1`, the GI50 with HOP-18 is 35.3 µM (inactive); with DMS-114, 56.2 µM (inactive); with KM-20L2, > 100 µM (inactive); in the experiment on XF498 it was 21.4 µM (inactive); in the experiment on DMS-273, > 100 µM (inactive); with SNB-78, > 100 µM (inactive). Besides, the GI50 in the experiment with M19-MEL and with RXF 631 was > 100 µM (inactive) in each case.
On to `O=C(/C=C/c1ccc(OCCCOc2ccc(/C=C/C(=O)c3ccccc3)cc2)cc1)c1ccccc1`, for which the GI50 in the experiment with DMS-114 was > 100 µM (inactive); with KM-20L2 it was > 100 µM (inactive); in the experiment with DMS-273, > 100 µM (inactive); in the experiment on LXFL 529, > 100 µM (inactive); with M19-MEL it was > 100 µM (inactive); in the experiment with RXF 631, 51.2 µM (inactive).
For `CCOC(=O)NC(=O)c1cn(CCCO)c(=O)[nH]c1=O`, the GI50 in the experiment on HOP-18, with DMS-114, in the experiment on KM-20L2, in the experiment with XF498, in the experiment on DMS-273 and with SNB-78 was > 100 µM (inactive) throughout. Also, the GI50 in the experiment on M19-MEL and with RXF 631 was > 100 µM (inactive) in each case.
With `CN(C)CCNC(=O)c1cccc2c(Nc3ccc(S(=O)(=O)N=C(N)N)cc3)c3ccccc3nc12`, the GI50 in the experiment with DMS-114 is 2.34 µM (inactive); with KM-20L2 it was 32.9 µM (inactive); with XF498 it was 19.3 µM (inactive); with DMS-273, 6.59 µM (inactive); in the experiment on LXFL 529 it was 7.89 µM (inactive); in the experiment on M19-MEL, 18.7 µM (inactive).
In the case of `CN(C)CC1CCCC(CN(C)C)C1=NOC(=O)c1ccccc1` (stereo not given), the GI50 in the experiment with HOP-18 was > 81.8 µM (inactive); with DMS-114 it was > 100 µM (inactive); with KM-20L2, > 100 µM (inactive); in the experiment with XF498 it was > 100 µM (inactive); in the experiment on DMS-273, > 100 µM (inactive); in the experiment on SNB-78, > 100 µM (inactive). For the same molecule, the GI50 in the experiment with LXFL 529 and in the experiment on M19-MEL was > 100 µM (inactive) throughout.
Consider `CC(C(=O)c1ccccc1)C1(O)C(=O)Nc2ccc(Cl)cc21` (stereo not given), for which the GI50 in the experiment with HOP-18 is 12.8 µM (inactive); in the experiment with DMS-114 it was 56.8 µM (inactive); in the experiment with KM-20L2, > 100 µM (inactive); in the experiment with XF498, > 100 µM (inactive); in the experiment on SNB-78, > 100 µM (inactive); in the experiment with LXFL 529, 72.3 µM (inactive). Further, the GI50 in the experiment with M19-MEL was 16.7 µM (inactive).
Take `CN(CCN(C)C(=O)CCOS(C)(=O)=O)C(=O)CCOS(C)(=O)=O`: the GI50 with HOP-18 was > 100 µM (inactive); with DMS-114 it was > 100 µM (inactive); in the experiment on KM-20L2, > 100 µM (inactive); with XF498, > 100 µM (inactive); in the experiment with DMS-273 it was 74 µM (inactive); with SNB-78, > 100 µM (inactive). In the experiment with LXFL 529, the GI50 was > 100 µM (inactive).
Take `COc1ccc2c(CCNC(C)=O)c(C(C)=O)[nH]c2c1`: the GI50 with DMS-114, in the experiment on KM-20L2, in the experiment on DMS-273, in the experiment with SNB-78, in the experiment with LXFL 529 and in the experiment with RXF 631 was > 100 µM (inactive) throughout.
Regarding `CSc1nc(NC2OCC(OC(C)=O)C(OC(C)=O)C2OC(C)=O)c2c(OC(C)=O)c(C)c(=O)oc2n1` (stereo not given), the GI50 in the experiment with HOP-18, with DMS-114, with KM-20L2, in the experiment with XF498, in the experiment with SNB-78 and in the experiment with LXFL 529 was > 100 µM (inactive) each time. In addition, the GI50 in the experiment on M19-MEL and with RXF 631 was > 100 µM (inactive) each time.
With `CC1=C(C)C(=O)c2c(cc3ccc4ccccc4n23)C1=O`, the GI50 in the experiment on HOP-18, with DMS-114, in the experiment with DMS-273, with SNB-78, in the experiment on LXFL 529 and in the experiment on M19-MEL was > 100 µM (inactive) each time. In addition, the GI50 in the experiment with RXF 631 is > 100 µM (inactive).
As to `CSc1nc2[nH]c(=O)c(C)nc2c(=O)[nH]1`, the GI50 in the experiment with DMS-114, with KM-20L2, in the experiment on XF498, with DMS-273, in the experiment on LXFL 529 and with M19-MEL was > 100 µM (inactive) each time.
Take `COC(=O)C1C(=O)O[C@@H](c2ccc(OC)cc2)C1C(=O)OC` (stereo not given in full): the GI50 in the experiment on HOP-18, with DMS-114, in the experiment with KM-20L2, with XF498, in the experiment with DMS-273 and with LXFL 529 was > 100 µM (inactive) each time. In the experiment on M19-MEL, the GI50 is > 100 µM (inactive).
Take `CC1CCP(=O)(c2ccccc2)CC1` (stereo not given): the GI50 in the experiment on DMS-114, in the experiment on KM-20L2, in the experiment with XF498, in the experiment on DMS-273, in the experiment on SNB-78 and with LXFL 529 was > 100 µM (inactive) throughout. Also, the GI50 in the experiment with M19-MEL and in the experiment on RXF 631 was > 100 µM (inactive) throughout.
Consider `O=C1Nc2ccccc2/C1=N/NC(=O)c1ccccc1O`, for which the GI50 in the experiment with HOP-18 was 56 µM (inactive); in the experiment with DMS-114, 43.4 µM (inactive); in the experiment with KM-20L2, > 100 µM (inactive); with SNB-78, 99.8 µM (inactive); with LXFL 529 it was 41.3 µM (inactive); in the experiment with M19-MEL it was 53 µM (inactive).
`O=C(O)c1ccccc1NS(=O)(=O)c1ccc([N+](=O)[O-])cc1`: the GI50 with HOP-18, with KM-20L2, in the experiment with XF498, in the experiment on DMS-273, with SNB-78 and with LXFL 529 was > 100 µM (inactive) in each case. The GI50 with RXF 631 was > 100 µM (inactive).
Turning to `CCOC(=O)N1C(=O)C2C3C=CC(C2C1=O)C1C2C(=O)N(C(=O)OCC)C(=O)C2C31` (stereo not given), the GI50 with HOP-18 was 43.4 µM (inactive); in the experiment with DMS-114 it was > 45.9 µM (inactive); with KM-20L2 it was > 77.1 µM (inactive); in the experiment with XF498 it was > 100 µM (inactive); with DMS-273, > 43.7 µM (inactive); in the experiment with SNB-78, > 100 µM (inactive). For the same molecule, the GI50 in the experiment with LXFL 529 is > 100 µM (inactive); in the experiment with M19-MEL, > 74.5 µM (inactive); in the experiment on RXF 631, > 100 µM (inactive).
